Measured values as given in US20170298060A1, “PYRROLOPYRIDINE RETINOIC ACID RECEPTOR-RELATED ORPHAN RECEPTOR MODULATORS AND USES THEREOF” (INNOV17 LLC, priority 2016, published 2017).
pIC50: −log10 of the molar value.

Assays:
IL-17A = assay: Human TH17 cytokine inhibition as measured by ELISA (IL-17A); type: cell-based; conditions: 72 h; human CD4+ T cells under TH17-polarizing conditions, 3 days, supernatant ELISA, 0.1% DMSO
Description: (§1) Human TH17 Cytokine Inhibition as Measured by ELISA
(§2) Peripheral blood mononuclear cells (PBMCs) were sourced from freshly prepared leukocyte enriched plasma (buffy coat) from healthy donors (New York Blood Center). PBMCs were isolated by density gradient centrifugation using Ficoll-Paque™ PLUS (GE Healthcare). Human CD4+ T cells were seeded into 96-well plates (5×10^4 cells/well) and activated with plate-bound anti-human (h)-CD3 antibody and soluble h-aCD28 (both at 1 ug/ml; eBioscience) and differentiated into TH17 cells with 20 ng/mL h-IL-6, 5 ng/mL h-TGF-β1, 10 ng/mL h-IL-23 (eBioscience) and 10 ng/mL IL-1β (Miltenyi Biotec) in serum-free TexMACS Medium (Miltenyi Biotec) supplemented with 1% Penicillin/Streptomycin (Lonza) for 3 days. CD4+ T cells propagated under TH17-polarizing conditions were cultured in the presence or absence of various concentrations of compounds with a final concentration of 0.1% DMSO. Supernatants were collected and stored at −20° C. until assayed for IL-17A and IL-17F levels by “Ready-Set-Go” ELISA kits (eBioscience) as per manufacturer's instructions. Endpoint absorbance was read at 450 nm using a microplate reader (Perkin Elmer).

IL-17F = assay: Human TH17 cytokine inhibition as measured by ELISA (IL-17F); type: cell-based; conditions: 72 h; human CD4+ T cells under TH17-polarizing conditions, 3 days, supernatant ELISA, 0.1% DMSO
Description: as §1, §2

| Compound | pIC50 (IL-17A) | pIC50 (IL-17F) |
| --- | --- | --- |
| O=C(c1ccccc1)N1CCC(Cn2ccc3cc(-c4cn[nH]c4)ncc32)CC1 [Example 1, (4-((5-(1H-pyrazol-4-yl)-1H-pyrrolo[2,3-c]pyridin-1-yl)methyl)piperidin-1-yl)(phenyl)methanone] | > 5.00 | > 5.00 |
| CC(C)CC(=O)N1CCC(Cn2ccc3cc(-c4cn[nH]c4)ncc32)CC1 [Example 3] | > 5.00 | > 5.00 |
| O=C(c1ccccc1F)N1CCC(Cn2ccc3cc(-c4cn[nH]c4)ncc32)CC1 [Example 4, (4-((5-(1H-pyrazol-4-yl)-1H-pyrrolo[2,3-c]pyridin-1-yl)methyl)piperidin-1-yl)(2-fluorophenyl)methanone] | > 5.00 | > 5.00 |
| O=S(=O)(CCc1ccccc1)N1CCC(Cn2ccc3cc(-c4cn[nH]c4)ncc32)CC1 [Example 5, 1-((1-(phenethylsulfonyl)piperidin-4-yl)methyl)-5-(1H-pyrazol-4-yl)-1H-pyrrolo[2,3-c]pyridine] | > 5.00 | > 5.00 |
| CC(C)CS(=O)(=O)N1CCC(Cn2ccc3cc(-c4cn[nH]c4)ncc32)CC1 [Example 6, 1-((1-(isobutylsulfonyl)piperidin-4-yl)methyl)-5-(1H-pyrazol-4-yl)-1H-pyrrolo[2,3-c]pyridine] | > 5.00 | > 5.00 |
| O=S(=O)(c1ccccc1)N1CCC(Cn2ccc3cc(-c4cn[nH]c4)ncc32)CC1 [Example 7, 1-((1-(phenylsulfonyl)piperidin-4-yl)methyl)-5-(1H-pyrazol-4-yl)-1H-pyrrolo[2,3-c]pyridine] | > 5.00 | > 5.00 |
| O=S(=O)(c1ccccc1F)N1CCC(Cn2ccc3cc(-c4cn[nH]c4)ncc32)CC1 [Example 8, 1-((1-((2-fluorophenyl)sulfonyl)piperidin-4-yl)methyl)-5-(1H-pyrazol-4-yl)-1H-pyrrolo[2,3-c]pyridine] | > 5.00 | > 5.00 |
| O=C(c1ccccc1)N1CCC(Cn2ccc3cc(-c4cn[nH]c4)cnc32)CC1 [Example 9, (4-((5-(1H-pyrazol-4-yl)-1H-pyrrolo[2,3-b]pyridin-1-yl)methyl)piperidin-1-yl)(phenyl)methanone] | > 5.00 | > 5.00 |

Second part, the compound after the results:

| pIC50 (IL-17A) | pIC50 (IL-17F) | Compound |
| --- | --- | --- |
| > 5.00 | > 5.00 | O=C(CCc1ccccc1)N1CCC(Cn2ccc3cc(-c4cn[nH]c4)cnc32)CC1 [Example 10, 1-(4-((5-(1H-pyrazol-4-yl)-1H-pyrrolo[2,3-b]pyridin-1-yl)methyl)piperidin-1-yl)-3-phenylpropan-1-one] |
| > 5.00 | > 5.00 | CC(C)CC(=O)N1CCC(Cn2ccc3cc(-c4cn[nH]c4)cnc32)CC1 [Example 11, 1-(4-((5-(1H-pyrazol-4-yl)-1H-pyrrolo[2,3-b]pyridin-1-yl)methyl)piperidin-1-yl)-3-methylbutan-1-one] |
| > 5.00 | > 5.00 | O=C(c1ccccc1F)N1CCC(Cn2ccc3cc(-c4cn[nH]c4)cnc32)CC1 [Example 12, (4-((5-(1H-pyrazol-4-yl)-1H-pyrrolo[2,3-b]pyridin-1-yl)methyl)piperidin-1-yl)(2-fluorophenyl)methanone] |
| > 5.00 | > 5.00 | O=S(=O)(CCc1ccccc1)N1CCC(Cn2ccc3cc(-c4cn[nH]c4)cnc32)CC1 [Example 13, 1-((1-(phenethylsulfonyl)piperidin-4-yl)methyl)-5-(1H-pyrazol-4-yl)-1H-pyrrolo[2,3-b]pyridine] |
| > 5.00 | > 5.00 | CC(C)CS(=O)(=O)N1CCC(Cn2ccc3cc(-c4cn[nH]c4)cnc32)CC1 [Example 14, 1-((1-(isobutylsulfonyl)piperidin-4-yl)methyl)-5-(1H-pyrazol-4-yl)-1H-pyrrolo[2,3-b]pyridine] |
| > 5.00 | > 5.00 | O=S(=O)(c1ccccc1)N1CCC(Cn2ccc3cc(-c4cn[nH]c4)cnc32)CC1 [Example 15, 1-((1-(phenylsulfonyl)piperidin-4-yl)methyl)-5-(1H-pyrazol-4-yl)-1H-pyrrolo[2,3-b]pyridine] |
| > 5.00 | > 5.00 | O=S(=O)(c1ccccc1F)N1CCC(Cn2ccc3cc(-c4cn[nH]c4)cnc32)CC1 [Example 16, 1-((1-((2-fluorophenyl)sulfonyl)piperidin-4-yl)methyl)-5-(1H-pyrazol-4-yl)-1H-pyrrolo[2,3-b]pyridine] |
